Assay results as given in ChEMBL document CHEMBL2074198, “Influence of passive permeability on apparent P-glycoprotein kinetics” (Pharm Res, 2000).

Assays:
[1] = biological target: T1, ATP-dependent translocase ABCB1 (Homo sapiens, UniProt P08183); experiment: TP_TRANSPORTER: inhibition of Vinblastine transepithelial transport (basal to apical) (Vinblastine: 0.004 uM, […]: 3000 uM) in Caco-2 cells; type: functional, cell-based; details: caco-2, 3000 µM
[2] = biological target: T1, ATP-dependent translocase ABCB1; experiment: TP_TRANSPORTER: inhibition of Vinblastine transepithelial transport (basal to apical)(Vinblastine: 0.004 uM, Nicardipine: 60 uM) in Caco-2 cells; type: functional, cell-based; details: caco-2, 60 µM

T1 sequence (P08183 whole entry): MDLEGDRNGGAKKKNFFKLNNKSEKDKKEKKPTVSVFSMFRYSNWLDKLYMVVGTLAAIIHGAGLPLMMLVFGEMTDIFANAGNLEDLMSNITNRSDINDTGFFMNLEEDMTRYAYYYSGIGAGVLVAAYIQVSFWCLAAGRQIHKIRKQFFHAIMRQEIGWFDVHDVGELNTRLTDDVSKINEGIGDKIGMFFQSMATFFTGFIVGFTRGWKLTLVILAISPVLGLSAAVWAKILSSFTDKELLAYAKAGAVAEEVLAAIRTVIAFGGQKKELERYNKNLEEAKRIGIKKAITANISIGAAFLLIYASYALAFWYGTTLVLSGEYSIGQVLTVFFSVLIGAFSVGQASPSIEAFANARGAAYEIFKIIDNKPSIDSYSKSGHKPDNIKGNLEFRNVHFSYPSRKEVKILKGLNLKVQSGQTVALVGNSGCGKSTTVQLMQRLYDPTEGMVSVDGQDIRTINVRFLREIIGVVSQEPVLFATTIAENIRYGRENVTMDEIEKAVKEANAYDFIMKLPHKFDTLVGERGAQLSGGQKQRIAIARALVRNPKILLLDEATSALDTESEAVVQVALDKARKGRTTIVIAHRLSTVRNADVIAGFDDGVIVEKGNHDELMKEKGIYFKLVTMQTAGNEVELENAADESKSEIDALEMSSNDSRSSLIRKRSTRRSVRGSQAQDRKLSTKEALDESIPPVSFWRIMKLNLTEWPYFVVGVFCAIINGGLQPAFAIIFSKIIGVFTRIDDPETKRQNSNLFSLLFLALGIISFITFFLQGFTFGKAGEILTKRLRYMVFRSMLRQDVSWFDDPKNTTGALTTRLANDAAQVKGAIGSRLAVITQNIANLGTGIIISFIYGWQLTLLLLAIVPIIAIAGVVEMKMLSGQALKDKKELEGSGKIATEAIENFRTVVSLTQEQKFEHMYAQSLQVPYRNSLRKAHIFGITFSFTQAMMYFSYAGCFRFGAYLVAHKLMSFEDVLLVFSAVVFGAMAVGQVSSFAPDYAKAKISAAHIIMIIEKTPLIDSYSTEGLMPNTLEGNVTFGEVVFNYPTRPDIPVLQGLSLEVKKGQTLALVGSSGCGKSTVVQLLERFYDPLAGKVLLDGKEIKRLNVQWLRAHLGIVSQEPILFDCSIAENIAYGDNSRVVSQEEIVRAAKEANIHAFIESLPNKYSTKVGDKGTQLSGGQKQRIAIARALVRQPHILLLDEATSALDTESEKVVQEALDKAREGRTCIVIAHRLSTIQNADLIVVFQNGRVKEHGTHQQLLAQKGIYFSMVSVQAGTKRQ

| Activity [1] | Activity [2] | Compound |
| --- | --- | --- |
| inhibitor [+] | – | CNC(=C[N+](=O)[O-])NCCSCc1ccc(CN(C)C)o1 [RANITIDINE] |
| – | inhibitor [+] | COC(=O)C1=C(C)NC(C)=C(C(=O)OCCN(C)Cc2ccccc2)C1c1cccc([N+](=O)[O-])c1 (configuration not stated) [NICARDIPINE] |
